Test results from PubChem BioAssay AID2060618 (Molecular Pharmacology Branch, DTP, NCI, 2025).

Tested on: 454973-116-R2-J3-PDC spheroids, percent test/control viability
Experiment: Anticancer human tumor 454973-116-R2-J3-PDC patient-derived pancreatic carcinoma cell line growth inhibition [CLK]
Conditions: spheroids with HUVEC and MSC; for IC50: curve of first compound; for viability, T/C: stronger effect = lower value; active = viability on the fitted dose curve at most 10% of control; inactive = the rest
Outline: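 Multi-cell-type spheroids combined patient-derived tumor cells with HUVEC endothelial cells and human mesenchymal stem cells. Paired agents were dosed in half-log steps down from about clinical Cmax, or from 10 microM where Cmax was unknown.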

[1] = second compound 0.0316 µM, first compound 0.0316 µM
[2] = second compound 0.0316 µM, first compound 0.1 µM
[3] = second compound 0.0316 µM, first compound 0.316 µM
[4] = second compound 0.0316 µM, first compound 1 µM
[5] = second compound 0.0316 µM, first compound 3.16 µM
[6] = second compound 0.0316 µM, first compound 10 µM
[7] = second compound 0.1 µM, first compound 0.0316 µM
[8] = second compound 0.1 µM, first compound 0.1 µM
[9] = second compound 0.1 µM, first compound 0.316 µM
[10] = second compound 0.1 µM, first compound 1 µM
[11] = second compound 0.1 µM, first compound 3.16 µM
[12] = second compound 0.1 µM, first compound 10 µM
[13] = second compound 0.316 µM, first compound 0.0316 µM
[14] = second compound 0.316 µM, first compound 0.1 µM
[15] = second compound 0.316 µM, first compound 0.316 µM
[16] = second compound 0.316 µM, first compound 1 µM
[17] = second compound 0.316 µM, first compound 3.16 µM
[18] = second compound 0.316 µM, first compound 10 µM
[19] = second compound 1 µM, first compound 0.0316 µM
[20] = second compound 1 µM, first compound 0.1 µM
[21] = second compound 1 µM, first compound 0.316 µM
[22] = second compound 1 µM, first compound 1 µM
[23] = second compound 1 µM, first compound 3.16 µM
[24] = second compound 1 µM, first compound 10 µM
[25] = second compound 3.16 µM, first compound 0.0316 µM
[26] = second compound 3.16 µM, first compound 0.1 µM
[27] = second compound 3.16 µM, first compound 0.316 µM
[28] = second compound 3.16 µM, first compound 1 µM
[29] = second compound 3.16 µM, first compound 3.16 µM
[30] = second compound 3.16 µM, first compound 10 µM
[31] = second compound 10 µM, first compound 0.0316 µM
[32] = second compound 10 µM, first compound 0.1 µM
[33] = second compound 10 µM, first compound 0.316 µM
[34] = second compound 10 µM, first compound 1 µM
[35] = second compound 10 µM, first compound 3.16 µM
[36] = second compound 10 µM, first compound 10 µM
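Also: spheroids exposed to compounds for 7 days before readout.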

C=CC(=O)N1CCN(c2nc(=O)n(-c3c(C)ccnc3C(C)C)c3nc(-c4c(O)cccc4F)c(F)cc23)C(C)C1 (stereo unspecified) + CNC(=O)c1ccc(Nc2nc(OC3CCCC3)c3c(-c4ccc5nc(C)oc5c4)c[nH]c3n2)c(OC)c1
inactive: viability, T/C [1] 103% | viability, T/C [2] 113% | viability, T/C [3] 118% | viability, T/C [4] 124% | viability, T/C [5] 122% | viability, T/C [6] 115% | viability, T/C [7] 107% | viability, T/C [8] 113% | viability, T/C [9] 101% | viability, T/C [10] 119% | viability, T/C [11] 113% | viability, T/C [12] 120% | viability, T/C [13] 52% | viability, T/C [14] 48.1% | viability, T/C [15] 48% | viability, T/C [16] 47% | viability, T/C [17] 47.5% | viability, T/C [18] 45% | viability, T/C [19] 28.5% | viability, T/C [20] 30.5% | viability, T/C [21] 34% | viability, T/C [22] 32.6% | viability, T/C [23] 37.3% | viability, T/C [24] 31.4% | viability, T/C [25] 32.8% | viability, T/C [26] 24% | viability, T/C [27] 30.9% | viability, T/C [28] 30.9% | viability, T/C [29] 28.5% | viability, T/C [30] 25.4% | viability, T/C [31] 25.2% | viability, T/C [32] 25.6% | viability, T/C [33] 25.6% | viability, T/C [34] 26.1% | viability, T/C [35] 30.2% | viability, T/C [36] 23.5%
< 31.6 nM: IC50 (second compound 1 µM) | IC50 (second compound 3.16 µM) | IC50 (second compound 10 µM)
62.5 nM: IC50 (second compound 0.316 µM)
> 10000 nM: IC50 (second compound 0.0316 µM) | IC50 (second compound 0.1 µM)

CCCS(=O)(=O)Nc1ccc(F)c(C(=O)c2c[nH]c3ncc(-c4ccc(Cl)cc4)cc23)c1F + CNC(=O)c1ccc(Nc2nc(OC3CCCC3)c3c(-c4ccc5nc(C)oc5c4)c[nH]c3n2)c(OC)c1
7250 nM: IC50 (second compound 0.1 µM)
6960 nM: IC50 (second compound 0.0316 µM)
31.6 nM: IC50 (second compound 0.316 µM)
inactive: viability, T/C [1] 96% | viability, T/C [2] 107% | viability, T/C [3] 102% | viability, T/C [4] 126% | viability, T/C [5] 107% | viability, T/C [6] 23.8% | viability, T/C [7] 97.5% | viability, T/C [8] 106% | viability, T/C [9] 111% | viability, T/C [10] 111% | viability, T/C [11] 109% | viability, T/C [12] 27.9% | viability, T/C [13] 48.2% | viability, T/C [14] 45.2% | viability, T/C [15] 45.5% | viability, T/C [16] 51.2% | viability, T/C [17] 53% | viability, T/C [18] 14.4% | viability, T/C [19] 32.2% | viability, T/C [20] 33.6% | viability, T/C [21] 33% | viability, T/C [22] 37% | viability, T/C [23] 32% | viability, T/C [24] 12.9% | viability, T/C [25] 27.9% | viability, T/C [26] 27.3% | viability, T/C [27] 31.6% | viability, T/C [28] 36.7% | viability, T/C [29] 29.7% | viability, T/C [30] 10.4% | viability, T/C [31] 26.2% | viability, T/C [32] 23.9% | viability, T/C [33] 25.9% | viability, T/C [34] 29.4% | viability, T/C [35] 31.9% | viability, T/C [36] 9.04%
< 31.6 nM: IC50 (second compound 1 µM) | IC50 (second compound 3.16 µM) | IC50 (second compound 10 µM)

COC1C=CCC(C)C(C)S(=O)(=O)NC(=O)c2ccc3c(c2)N(CC2CCC21)CC1(CCCc2cc(Cl)ccc21)CO3 (stereo unspecified) + CNC(=O)c1ccc(Nc2nc(OC3CCCC3)c3c(-c4ccc5nc(C)oc5c4)c[nH]c3n2)c(OC)c1
< 31.6 nM: IC50 (second compound 0.316 µM) | IC50 (second compound 1 µM) | IC50 (second compound 3.16 µM) | IC50 (second compound 10 µM)
active: viability, T/C [6] 6.26% | viability, T/C [12] 8.61% | viability, T/C [35] 8.86% | viability, T/C [36] 9.25%
inactive: viability, T/C [1] 99.4% | viability, T/C [2] 104% | viability, T/C [3] 93.9% | viability, T/C [4] 95% | viability, T/C [5] 86.8% | viability, T/C [7] 91.8% | viability, T/C [8] 98.8% | viability, T/C [9] 92.4% | viability, T/C [10] 84.3% | viability, T/C [11] 70.9% | viability, T/C [13] 48.2% | viability, T/C [14] 53.7% | viability, T/C [15] 42% | viability, T/C [16] 46.1% | viability, T/C [17] 46.3% | viability, T/C [18] 11.5% | viability, T/C [19] 30.2% | viability, T/C [20] 23.3% | viability, T/C [21] 14.2% | viability, T/C [22] 14.4% | viability, T/C [23] 17.6% | viability, T/C [24] 14.9% | viability, T/C [25] 24.1% | viability, T/C [26] 17.4% | viability, T/C [27] 11.2% | viability, T/C [28] 11.9% | viability, T/C [29] 13.9% | viability, T/C [30] 11.8% | viability, T/C [31] 23.7% | viability, T/C [32] 21.5% | viability, T/C [33] 12.1% | viability, T/C [34] 9.9%
4570 nM: IC50 (second compound 0.1 µM)
5340 nM: IC50 (second compound 0.0316 µM)
